Test results taken from publication PMC12434519.
Read-outs that look alike come from different tables or passages of the source.

Legend:
Huh-7.5 cells = assay: Cytotoxicity in Huh-7.5 cells; assay type: cell-based, Homo sapiens; settings: at ≤ 3 μM compound
[1] = Cytotoxicity in Huh-7.5 cells; assay type: cell-based, Homo sapiens; settings: human, n = 3
SARS-CoV-2 [2] = assay: SARS-CoV-2 viral infection assay in Huh-7.5 cells; assay type: cell-based, SARS-CoV-2 (strain: USA-WA1/2020); settings: n = 3
human RNMT-RAM complex = human RNMT-RAM complex (Homo sapiens, UniProt O43148); assay: Biochemical activity assay for the human RNMT-RAM complex (MTase-Glo); settings: for hRNMT-RAM inhibition: Hill slope: fit of concentration-response curve; for Emax: read-out: hRNMT-RAM inhibition: Maximum response
human RNMT-RAM complex, sequence (O43148 whole entry): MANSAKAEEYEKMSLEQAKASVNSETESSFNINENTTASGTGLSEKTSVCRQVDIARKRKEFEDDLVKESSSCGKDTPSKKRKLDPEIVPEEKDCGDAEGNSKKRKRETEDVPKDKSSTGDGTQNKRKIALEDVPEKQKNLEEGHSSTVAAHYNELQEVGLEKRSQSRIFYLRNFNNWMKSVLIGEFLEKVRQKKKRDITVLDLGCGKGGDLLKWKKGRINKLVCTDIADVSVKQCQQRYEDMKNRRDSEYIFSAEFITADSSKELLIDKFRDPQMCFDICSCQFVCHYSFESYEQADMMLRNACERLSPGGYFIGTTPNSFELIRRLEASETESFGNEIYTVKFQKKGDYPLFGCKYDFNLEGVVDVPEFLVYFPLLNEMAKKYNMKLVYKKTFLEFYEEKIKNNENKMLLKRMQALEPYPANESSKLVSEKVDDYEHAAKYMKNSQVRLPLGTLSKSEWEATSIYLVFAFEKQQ
human RNMT-RAM complex, sequence (Q9BTL3 whole entry partner): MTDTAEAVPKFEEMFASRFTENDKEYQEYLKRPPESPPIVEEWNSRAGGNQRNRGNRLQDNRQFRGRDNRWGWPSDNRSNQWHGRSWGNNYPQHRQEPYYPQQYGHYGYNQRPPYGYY

ZIKV NS5 = ZIKV NS5 (Zika virus, UniProt Q32ZE1); assay: Biochemical activity assay for ZIKV NS5 MTase (MTase-Glo); settings: for Emax: 0.75 h, read-out: ZIKV NS5 inhibition: Maximum measured; for ZIKV NS5 inhibition: Hill slope: fit of concentration-response curve
ZIKV NS5, sequence (Q32ZE1 2517-2781): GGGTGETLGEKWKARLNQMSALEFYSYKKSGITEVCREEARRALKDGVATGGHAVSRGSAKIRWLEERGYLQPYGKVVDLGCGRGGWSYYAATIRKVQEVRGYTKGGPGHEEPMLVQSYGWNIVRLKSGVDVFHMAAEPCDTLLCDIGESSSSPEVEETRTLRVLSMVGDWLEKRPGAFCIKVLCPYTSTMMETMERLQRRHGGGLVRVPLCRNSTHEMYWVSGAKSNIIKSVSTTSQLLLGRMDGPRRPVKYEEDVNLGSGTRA
Method: final concentration, lab stock) during dialysis at 4 °C overnight against a buffer containing 50 mM Tris-HCl, pH 7.5, 20 mM imidazole, 500 mM NaCl, and 1 mM dithiothreitol (DTT). To remove the His6-SUMO tag, the protein sample was mixed with cOmplete His-Tag purification resin (Roche), incubated for 2 h at 4 °C, and loaded onto a gravity flow column. Since the His6-SUMO tag bound to the column material, the flow-through was collected containing untagged target protein. The target protein was further purified by a Superdex200 10/300 gel filtration column (GE Healthcare) in buffer (20 mM Tris-HCl, pH 7.5, 500 mM NaCl, 1 mM DTT). Fractions were analyzed by SDS-PAGE and Coomassie staining. Protein-containing fractions were pooled, flash-frozen in liquid nitrogen, and stored at -80 °C. […]
in 1X NSP14 reaction buffer (50 mM Tris-HCl, pH 7.5, 6 mM KCl, 1.25 mM MgCl2, 1 mM DTT, and 0.01% Tween-20) in a total reaction volume of 16 µl in absence or presence of increasing inhibitor compound concentrations for 45 min at 37 °C. SAH production was monitored using the bioluminescence-based MTase-Glo™ Methyltransferase Assay kit (Promega) following manufacturer’s instructions. The luminescence signal of each reaction was recorded in relative light units (RLUs) using a Synergy Neo plate reader (BioTek, Winooski, VT). […] IC50 values (mean from at least 3 independent experiments) were calculated using the GraphPad Prism software (Version 10.1.1) and a four-parameter logistic regression.
Biochemical activity assays for the human RNMT-RAM complex and ZIKV NS5 MTases Activity assays were performed in 1x NSP14 reaction buffer. For hRNMT-RAM, we used 15 nM enzyme, 2.5 µM GpppG and 2 µM SAM. For ZIKV NS5, we used 25 nM enzyme, 3 µM […]
Gppp[…]3, and 5 µM SAM. The enzymatic reaction was initiated with the addition of the enzyme in assay buffer and incubated at RT or 37 °C for 45 min, respectively. SAH was detected using the MTase-Glo™ assay.
Differential scanning fluorimetry (DSF)

[3] = SAH counterscreen inhibition (counterscreen of the MTase-Glo luminescence readout); settings: for SAH counterscreen inhibition: Maximum response / IC50: LUM % inhibition; for SAH counterscreen inhibition: Hill slope: fit of concentration-response curve; for IC50: read-out: SAH counterscreen inhibition: IC50
SARS-CoV-2 [4] = test system: SARS-CoV-2; parameters: method as in PMID 39663451; settings: transgenic mouse model; efficacy comparable to nirmatrelvir; cited from earlier work
[5] = LUM % inhibition, read-out: hRNMT-RAM inhibition: IC50
[6] = selectivity assay, read-out: ZIKV NS5 inhibition IC50

Row | SMILES | Cytotoxicity (Huh-7.5 cells) | CC50 [1] [µM] | EC50 (SARS-CoV-2 [2]; Huh-7.5 cells, read-out: Anti-SARS-CoV-2 activity EC50) [µM] | EC50 (SARS-CoV-2 [2]; Severe acute respiratory syndrome coronavirus 2, Huh7.5, read-out: Anti-SARS-CoV-2 activity EC50, Huh-7.5 cells) [µM] | IC50 (human RNMT-RAM complex; [5]) [µM] | hRNMT-RAM inhibition: Hill slope (human RNMT-RAM complex) | Emax (human RNMT-RAM complex) [%] | Emax (ZIKV NS5; LUM % inhibition) [%] | ZIKV NS5 inhibition: Hill slope (ZIKV NS5) | IC50 (ZIKV NS5; [6]) [µM] | SAH counterscreen inhibition: Maximum response [3] [%] | SAH counterscreen inhibition: Hill slope [3] | IC50 [3] [µM] | IC50 (ZIKV NS5; LUM % inhibition) [µM] | Inhibition of viral replication in vivo (SARS-CoV-2 [4]) | IC50 (human RNMT-RAM complex) [µM] | Emax (human RNMT-RAM complex; LUM % inhibition) [%]
1 | Cc1cc(S(=O)(=O)c2cc(C(=O)NCc3c(F)ccc4cnn(C5CC5)c34)n(C)c2C)cc2cn[nH]c12 [TDI-016037] | no cytotoxicity was detected | ≥ 3 | 0.008 | 0.0086 |  |  |  |  |  |  |  |  |  |  |  |  | 
2 | O=C(Cn1cccc(-c2nc(-c3ccccc3)no2)c1=O)Nc1ccc(F)cc1F [RU-0833868, Fc1c(NC(=O)CN2C=CC=C(c3nc(c4ccccc4)no3)C2=O)ccc(F)c1] |  |  |  |  | > 250 | 3.14 | 5.14 | 64.4 | 0.969 | 122 | 21.5 | 19.2 | > 125 |  |  |  | 
3 | Cc1cc(C(=O)NCc2ccc(C(=O)NC(C)c3ccccc3C)nc2)ccc1O (centres unmarked) [RU-0834146, CC1=CC(C(=O)NCC2=CN=C(C(=O)NC(C)C3=C(C)C=CC=C3)C=C2)=CC=C1O] |  |  |  |  | > 250 | 86 | 4.85 | 11.2 | 10.6 |  | 16.1 | -44.2 | > 125 | > 250 |  |  | 
4 | COc1ccc(-c2ocnc2C(=O)Nc2ccc3oc(=O)n(CC(=O)N4CCCCC4)c3c2)cc1 [RU-0833661, COC1=CC=C(C2=C(C(=O)NC3=CC=C4OC(=O)N(CC(=O)N5CCCCC5)C4=C3)N=CO2)C=C1] |  |  |  |  | > 125 | 5.03 | 36.6 | 66.6 | 1.01 | 73.7 | 20.6 | 0.36 | > 125 |  |  |  | 
5 | CCn1nc(C)c(C(=O)NCCc2ccc(CNC(=O)c3ccc4[nH]ncc4c3)cc2)c1C [RU-0834081, CCN1N=C(C)C(C(=O)NCCC2=CC=C(CNC(=O)C3=CC4=C(C=C3)NN=C4)C=C2)=C1C] |  |  |  |  | > 250 | 0.243 | 15.2 | 15.9 | 4.21 |  | 11.2 | 6.42 | > 125 | > 250 |  |  | 
6 | Cc1c(S(=O)(=O)N2CCc3[nH]ncc3C2)cc(C(=O)NCc2c(F)ccc3occc23)n1C [TDI-015051] |  |  |  |  |  |  |  |  |  |  |  |  |  |  | inhibited viral replication |  | 
7 | Cc1cnc(C(C)NC(=O)c2ccc(CNC(=O)c3ccc(O)c(C)c3)cn2)nc1 (centres unmarked) [RU-0834184, CC1=CN=C(C(C)NC(=O)C2=NC=C(CNC(=O)C3=CC=C(O)C(C)=C3)C=C2)N=C1] |  |  |  |  | > 250 | 137 | 5.53 | 12.7 | 1.19 |  | 16.9 | 13.5 | > 125 | > 250 |  |  | 
8 | Nc1ncnc2c1ncn2C1OC(CC(N)CCC(N)C(=O)O)C(O)C1O (centres unmarked) [RU-0425548] |  |  |  |  |  | 0.881 |  | 109 | 0.774 |  | 8.34 | 7.74 | > 62.5 | 0.21 |  | 0.00596 | 102
